The supplement of paper PMC10307832

What was measured:
Test in all cases: relative viability (nuclei count vs DMSO), 5 days (fraction); higher = more cells survive
[1] = compound: O=C(Nc1cc(C(F)(F)F)cc(C(F)(F)F)c1)c1cc(Cl)ccc1O [IMD-0354] + COc1cccc2cc(-c3nc([C@H]4CC[C@H](C(=O)O)CC4)n4ncnc(N)c34)[nH]c12 [OSI-027] (partner 0.5 µM)
Procedure, shortened: (§1)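 The day after seeding in 1536-well plates, lung cancer cell lines were treated by pin tool with a single drug, or with a fixed anchor-drug dose together with five library-drug doses (not always all listed) in √10 steps. After 5 days, a combined fix-and-stain solution (final 0.05% Triton X-100, 1% formaldehyde, 1 ug/ml Hoechst) was added. Nuclei counted on 4× images gave relative viability as treated counts over vehicle counts, reported as the median of duplicate plates.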

[2] = compound: Cc1cnc(CNC(=O)c2c(=O)c3ccc(N4CCCN(C)CC4)nc3n3c2sc2ccccc23)cn1 [CX-5461] + CCNC(=O)c1noc(-c2cc(C(C)C)c(O)cc2O)c1-c1ccc(CN2CCOCC2)cc1 [Luminespib] (partner 0.01 µM)
Procedure, shortened: as §1

[3] = compound: Cc1cnc(CNC(=O)c2c(=O)c3ccc(N4CCCN(C)CC4)nc3n3c2sc2ccccc23)cn1 [CX-5461] + CS(=O)(=O)N1CCN(Cc2cc3nc(-c4cccc5[nH]ncc45)nc(N4CCOCC4)c3s2)CC1 [Pictilisib] (partner 1 µM)
Procedure, shortened: as §1

[4] = compound: O=C(Nc1cc(C(F)(F)F)cc(C(F)(F)F)c1)c1cc(Cl)ccc1O [IMD-0354] + NC(=O)Nc1cc(-c2cccc(F)c2)sc1C(=O)N[C@H]1CCCNC1 [AZD7762] (partner 0.2 µM)
Procedure, shortened: as §1

Row | Cell Line | relative viability ([1]; first compound 0.04 µM) | relative viability ([1]; first compound 0.1265 µM) | relative viability ([1]; first compound 0.4 µM) | relative viability ([1]; first compound 1.265 µM) | relative viability ([1]; first compound 4 µM) | relative viability ([2]; first compound 0.01 µM) | relative viability ([2]; first compound 0.03162 µM) | relative viability ([2]; first compound 0.1 µM) | relative viability ([2]; first compound 0.3162 µM) | relative viability ([2]; first compound 1 µM) | relative viability ([3]; first compound 0.01 µM) | relative viability ([3]; first compound 0.03162 µM) | relative viability ([3]; first compound 0.1 µM) | relative viability ([3]; first compound 0.3162 µM) | relative viability ([3]; first compound 1 µM) | relative viability ([4]; first compound 0.04 µM) | relative viability ([4]; first compound 0.1265 µM) | relative viability ([4]; first compound 0.4 µM) | relative viability ([4]; first compound 1.265 µM) | relative viability ([4]; first compound 4 µM)
1 | NCI-H596 | 0.881 | 0.812 | 0.429 | 0.793 | 0.246 | 1.07 | 0.912 | 1.17 | 1.12 | 1.12 | 0.465 | 0.406 | 0.372 | 0.429 | 0.344 | 0.906 | 0.959 | 0.877 | 0.519 | 0.551
2 | NCI-H647 | 0.836 | 0.599 | 0.367 | 0.364 | 0.0879 | 0.192 | 0.163 | 0.169 | 0.146 | 0.108 | 0.429 | 0.459 | 0.426 | 0.136 | 0.28 | 0.707 | 0.531 | 0.309 | 0.0742 | 0.159
3 | NCI-H650 | 0.591 | 0.498 | 0.447 | 0.29 | 0.177 | 0.767 | 0.743 | 0.799 | 0.711 | 0.364 | 0.858 | 1.05 | 0.889 | 0.664 | 0.731 | 0.926 | 1.01 | 0.822 | 0.566 | 0.174
4 | NCI-H727 | 0.93 | 0.585 | 0.415 | 0.395 | 0.312 | 0.664 | 0.439 | 0.384 | 0.58 | 0.321 | 0.355 | 0.492 | 0.277 | 0.253 | 0.614 | 0.589 | 0.727 | 0.484 | 0.44 | 0.398
